Measured values published in patent publication US20180133331A1, “Site-Specific DNA-Doxorubicin Conjugates Display Enhanced Cytotoxicity to Breast Cancer Cells” (priority 2014, published 2018).

System: Salmon Sperm DNA
Test: Dox transfer from DCH to salmon sperm DNA (fluorescence quenching, stability of Dox:hairpin conjugate)
Type: physicochemical
Conditions: 100-fold excess spDNA (w/w), 37° C.
Method: Dox transfer from DCH: Samples of 2.5 μM (approximately 2 μg in 100 uL) DCH, doxorubicin, or hairpin+doxorubicin were prepared in DPBS with or without a 100-fold by weight (200 μg) excess of Salmon Sperm DNA and incubated at 37° C. Fluorescence intensity was determined by Typhoon-9210 variable mode imager with excitation set to 532 nm and the emission filter at 610 nm.
Stability of Dox:Hairpin Conjugate. It was hypothesized that covalent binding of Dox would allow for the Dox-conjugated hairpin to serve as a delivery vehicle with improved pharmacological properties and reduced systemic toxicities relative to conventional Dox. In order for the hairpin to act as an efficient delivery vehicle, Dox must remain stably bound under physiological conditions, but also undergo intracellular release and transfer to genomic DNA. […] Using the difference in fluorescence between hairpin-bound Dox and Dox intercalated into DNA, the half-life of the Dox-hairpin bond was measured. An assay was developed to quantify the transfer of Dox from the hairpin to genomic DNA under physiologic conditions. This assay is based on the difference in fluorescence of Dox in the context of the hairpin conjugate relative to genomic DNA. […] Reactions were incubated at 37° C. with fluorescence quenching measured over 48 h. […]

SMILES: COc1cccc2c1C(=O)c1c(O)c3c(c(O)c1C2=O)C[C@@](O)(C(=O)CO)C[C@@H]3O[C@H]1C[C@H](N)[C@H](O)[C@H](C)O1 [Dox, Doxorubicin]
- fluorescence quenching following addition of spDNA: fully quenched within one hour
